Experimental data taken from article PMC8000041, “New Insights into the Metabolism of the Flavanones Eriocitrin and Hesperidin: A Comparative Human Pharmacokinetic Study” (Antioxidants, 2021).

Experiment: Urinary excretion of flavanone-derived metabolites after single intake of lemon or orange extract (UPLC-ESI-QTOF-MS)
Assay type: in vivo, human
Details: lemon extract (3.1 g, 260 mg eriocitrin), urine fraction 0-4 h, mean ± SD
From the text: Secondary endpoints involved the evaluation of post-prandial changes in several biomarkers dealing with metabolism, inflammation, and oxidative stress after a high-fat-high-sugars meal. The design was a randomized pharmacokinetic, double-blind, crossover, single-dose trial consisted of 2 test-phases. The volunteers were randomly allocated into two groups using a computerized random number list. Each group consumed one of the citrus extracts by following a test-phase that lasted for 1 day for blood sampling and urine collection, a 2-week washout period between each test phase, and crossover before consuming the other extract. The volunteers were instructed to avoid the consumption of flavanone-containing products, from a list provided by the researchers, for 1 week before the study and during the wash-out phase (citrus fruit juices, tomatoes, tomato-based sauces (like ‘ketchup’), peppers, almonds, etc.). […] The 3 capsules provided a total of 1.95 g orange extract, containing 260 mg hesperidin, and 3.1 g lemon extract, containing 260 mg eriocitrin. […] Untreated urine samples were aliquoted and frozen at −80 °C for up to 4 weeks until analyses, avoiding freeze-thaw cycles to avoid metabolites’ deconjugation. Moreover, three measurements of blood pressure and heart rate were taken before each time-point of blood withdrawal. […] A previously validated method for analyzing phenolic metabolites in biological samples, including flavanone-derived metabolites, was used. […] After centrifugation at 14,000× g for 10 min at 4 °C, the supernatant was evaporated in a speed vacuum concentrator. Finally, samples were re-suspended in 100 µL of methanol, filtered through a 0.22 µm cellulose filters before analysis by UPLC- ESI-QTOF-MS. […] A targeted screening strategy was applied to identify metabolites that could be present after consuming the citrus extracts. Twenty-eight possible compounds were browsed in all the samples. The list of compounds included the polyphenols present in the extracts, with particular focus on the flavanone rutinosides hesperidin and eriocitrin, their respective aglycones hesperetin, and eriodictyol, as well as their derived phase-II conjugates (glucuronides, sulfates, sulfoglucuronides, etc.). The exact mass of each proposed compound was extracted using an extraction window of 0.01 m/z. The metabolites hesperetin 7-O-glucuronide, hesperetin 3′-O-glucuronide, hesperetin 3-O-sulfate, naringenin 4′-O-glucuronide, and naringenin 7′-O-glucuronide were quantified with their corresponding standards. […] The parent phenolic compounds were quantified with their corresponding standards. In the case of some relevant conjugated metabolites, which standards were not available (eriodictyol and homoeriodictyol conjugates), their quantification was achieved by using relative response factors (RRFs) as previously described. Briefly, RRFs are useful to check the different responses of metabolites in the mass spectrometer vs. their UV signal. While the ionization response of free vs. conjugated forms is usually very different, their UV signal response is quite similar. To this purpose, we injected in a HPLC-DAD-ESI-Q (MS) the plasma samples (n = 5) with the highest concentrations of those conjugated metabolites. Concentrations were calculated by integrating the area from their corresponding UV peaks and compared with the UV peak area of a known concentration of their corresponding available parent compounds (eriodictyol and homoeriodictyol). The concentrations calculated were used to compare the MS response for each conjugated-aglycone pair.

| Molecule | Urinary excretion F1 |
| --- | --- |
| Homoeriodictyol glucuronide [M6] | 13.9 ± 16.2 µg/mg creatinine |
| COc1ccc(C2CC(=O)c3c(O)cc(O)cc3O2)cc1OS(=O)(=O)O (stereo not shown) [M14, Hesperetin 3′-O-sulfate] | 1.9 ± 2.6 µg/mg creatinine |

Same assay, conditions: lemon extract, sum of fractions F1-F4 (24 h), mean ± SD

| Molecule | Urinary excretion Total F |
| --- | --- |
| Homoeriodictyol glucuronide [M6] | 106 ± 171 µg/mg creatinine |

Same assay, conditions: lemon extract, urine fraction 4-8 h, mean ± SD

| Molecule | Urinary excretion F2 |
| --- | --- |
| Homoeriodictyol glucuronide [M6] | 48.1 ± 90.0 µg/mg creatinine |
| COc1ccc(C2CC(=O)c3c(O)cc(O)cc3O2)cc1OS(=O)(=O)O (stereo not shown) [M14, Hesperetin 3′-O-sulfate] | 4.3 ± 4.5 µg/mg creatinine |

Same assay, conditions: lemon extract, urine fraction 8-10 h, mean ± SD

| Molecule | Urinary excretion F3 |
| --- | --- |
| Homoeriodictyol glucuronide [M6] | 37.2 ± 56.9 µg/mg creatinine |
| COc1ccc(C2CC(=O)c3c(O)cc(O)cc3O2)cc1OS(=O)(=O)O (stereo not shown) [M14, Hesperetin 3′-O-sulfate] | 3.3 ± 3.1 µg/mg creatinine |

Same assay, conditions: lemon extract, urine fraction 10-24 h, mean ± SD

| Molecule | Urinary excretion F4 |
| --- | --- |
| Homoeriodictyol glucuronide [M6] | 6.8 ± 8.0 µg/mg creatinine |
| COc1ccc(C2CC(=O)c3c(O)cc(O)cc3O2)cc1OS(=O)(=O)O (stereo not shown) [M14, Hesperetin 3′-O-sulfate] | 0.7 ± 0.6 µg/mg creatinine |

Same assay, conditions: orange extract (1.95 g, 260 mg hesperidin), urine fraction 0-4 h, mean ± SD

| Molecule | Urinary excretion F1 |
| --- | --- |
| COc1ccc(C2CC(=O)c3c(O)cc(O)cc3O2)cc1OS(=O)(=O)O (stereo not shown) [M14, Hesperetin 3′-O-sulfate] | 0.1 ± 0.3 µg/mg creatinine |

Same assay, conditions: orange extract, sum of fractions F1-F4 (24 h), mean ± SD

| Molecule | Urinary excretion Total F |
| --- | --- |
| COc1ccc(C2CC(=O)c3c(O)cc(O)cc3O2)cc1OS(=O)(=O)O (stereo not shown) [M14, Hesperetin 3′-O-sulfate] | 3.8 ± 7.3 µg/mg creatinine |

Same assay, conditions: orange extract, urine fraction 4-8 h, mean ± SD

| Molecule | Urinary excretion F2 |
| --- | --- |
| COc1ccc(C2CC(=O)c3c(O)cc(O)cc3O2)cc1OS(=O)(=O)O (stereo not shown) [M14, Hesperetin 3′-O-sulfate] | 1.2 ± 3.3 µg/mg creatinine |

Same assay, conditions: orange extract, urine fraction 8-10 h, mean ± SD

| Molecule | Urinary excretion F3 |
| --- | --- |
| COc1ccc(C2CC(=O)c3c(O)cc(O)cc3O2)cc1OS(=O)(=O)O (stereo not shown) [M14, Hesperetin 3′-O-sulfate] | 1.9 ± 3.1 µg/mg creatinine |

Same assay, conditions: orange extract, urine fraction 10-24 h, mean ± SD

| Molecule | Urinary excretion F4 |
| --- | --- |
| COc1ccc(C2CC(=O)c3c(O)cc(O)cc3O2)cc1OS(=O)(=O)O (stereo not shown) [M14, Hesperetin 3′-O-sulfate] | 0.6 ± 0.6 µg/mg creatinine |

Same assay, conditions: ratio lemon / orange extract intake

| Molecule | Urinary excretion after lemon extract vs. orange extract |
| --- | --- |
| COc1ccc(C2CC(=O)c3c(O)cc(O)cc3O2)cc1OS(=O)(=O)O (stereo not shown) [M14, Hesperetin 3′-O-sulfate] | around 2 fold |

Same assay, conditions: urine, after consuming lemon extract, n = 16 volunteers

| Molecule | Occurrence Urine LE (number of volunteers in whom the metabolite was detected) |
| --- | --- |
| Homoeriodictyol glucuronide [M6] | 16 |
| Hesperetin sulfoglucuronide [M11] | 0 |
| COc1ccc(C2CC(=O)c3c(O)cc(O)cc3O2)cc1OS(=O)(=O)O (stereo not shown) [M14, Hesperetin 3′-O-sulfate] | 16 |

Same assay, conditions: urine, after consuming orange extract, n = 16 volunteers

| Molecule | Occurrence Urine OE (number of volunteers in whom the metabolite was detected) |
| --- | --- |
| Homoeriodictyol glucuronide [M6] | 3 |
| Hesperetin sulfoglucuronide [M11] | 7 |
| COc1ccc(C2CC(=O)c3c(O)cc(O)cc3O2)cc1OS(=O)(=O)O (stereo not shown) [M14, Hesperetin 3′-O-sulfate] | 16 |

Experiment: Plasma metabolites and pharmacokinetics after single intake of lemon or orange extract (UPLC-ESI-QTOF-MS, non-compartmental analysis)
Assay type: in vivo, human
Details: after consuming lemon extract, n = 16 volunteers
From the text: Secondary endpoints involved the evaluation of post-prandial changes in several biomarkers dealing with metabolism, inflammation, and oxidative stress after a high-fat-high-sugars meal. The design was a randomized pharmacokinetic, double-blind, crossover, single-dose trial consisted of 2 test-phases. The volunteers were randomly allocated into two groups using a computerized random number list. Each group consumed one of the citrus extracts by following a test-phase that lasted for 1 day for blood sampling and urine collection, a 2-week washout period between each test phase, and crossover before consuming the other extract. The volunteers were instructed to avoid the consumption of flavanone-containing products, from a list provided by the researchers, for 1 week before the study and during the wash-out phase (citrus fruit juices, tomatoes, tomato-based sauces (like ‘ketchup’), peppers, almonds, etc.). […] The 3 capsules provided a total of 1.95 g orange extract, containing 260 mg hesperidin, and 3.1 g lemon extract, containing 260 mg eriocitrin. […] Plasma samples were obtained by centrifugation of peripheral venous blood at 14,000× g for 15 min at 4 °C and immediately frozen at −80 °C. Glucose, total cholesterol, HDL-cholesterol, LDL-cholesterol, triglycerides, insulin, homeostatic model assessment insulin resistance (HOMA-IR), gamma-glutamyl transferase (GGT), and alanine aminotransferase (ALT) were determined as previously reported. […] A previously validated method for analyzing phenolic metabolites in biological samples, including flavanone-derived metabolites, was used. […] After centrifugation at 14,000× g for 10 min at 4 °C, the supernatant was evaporated in a speed vacuum concentrator. Finally, samples were re-suspended in 100 µL of methanol, filtered through a 0.22 µm cellulose filters before analysis by UPLC- ESI-QTOF-MS. A targeted screening strategy was applied to identify metabolites that could be present after consuming the citrus extracts. Twenty-eight possible compounds were browsed in all the samples. The list of compounds included the polyphenols present in the extracts, with particular focus on the flavanone rutinosides hesperidin and eriocitrin, their respective aglycones hesperetin, and eriodictyol, as well as their derived phase-II conjugates (glucuronides, sulfates, sulfoglucuronides, etc.). The exact mass of each proposed compound was extracted using an extraction window of 0.01 m/z. The metabolites hesperetin 7-O-glucuronide, hesperetin 3′-O-glucuronide, hesperetin 3-O-sulfate, naringenin 4′-O-glucuronide, and naringenin 7′-O-glucuronide were quantified with their corresponding standards. […] The parent phenolic compounds were quantified with their corresponding standards. In the case of some relevant conjugated metabolites, which standards were not available (eriodictyol and homoeriodictyol conjugates), their quantification was achieved by using relative response factors (RRFs) as previously described. Briefly, RRFs are useful to check the different responses of metabolites in the mass spectrometer vs. their UV signal. While the ionization response of free vs. conjugated forms is usually very different, their UV signal response is quite similar. To this purpose, we injected in a HPLC-DAD-ESI-Q (MS) the plasma samples (n = 5) with the highest concentrations of those conjugated metabolites. Concentrations were calculated by integrating the area from their corresponding UV peaks and compared with the UV peak area of a known concentration of their corresponding available parent compounds (eriodictyol and homoeriodictyol). The concentrations calculated were used to compare the MS response for each conjugated-aglycone pair. Statistical analyses were carried out using the SPSS Software, version 23.0 (SPSS Inc., Chicago, IL, USA). Data are expressed as mean ± SD. The empirical distribution of data with the normality assumption was tested with the Shapiro-Wilk test. […]

| Molecule | Occurrence Plasma LE (number of volunteers in whom the metabolite was detected) |
| --- | --- |
| Homoeriodictyol glucuronide [M6] | 16 |
| Hesperetin sulfoglucuronide [M11] | 0 |
| COc1ccc(C2CC(=O)c3c(O)cc(O)cc3O2)cc1OS(=O)(=O)O (stereo not shown) [M14, Hesperetin 3′-O-sulfate] | 16 |

Same assay, conditions: after consuming orange extract, n = 16 volunteers

| Molecule | Occurrence Plasma OE (number of volunteers in whom the metabolite was detected) |
| --- | --- |
| Homoeriodictyol glucuronide [M6] | 3 |
| Hesperetin sulfoglucuronide [M11] | 8 |
| COc1ccc(C2CC(=O)c3c(O)cc(O)cc3O2)cc1OS(=O)(=O)O (stereo not shown) [M14, Hesperetin 3′-O-sulfate] | 16 |

Same assay, conditions: after lemon extract, mean ± SD

| Molecule | AUC(0-t) | Cmax | Tmax |
| --- | --- | --- | --- |
| Homoeriodictyol glucuronide [M6] | 3.133 ± 4.17 µM·h | 780 ± 863 nM | 6.1 ± 2.4 h |

Same assay, conditions: after orange (hesperidin) extract, mean ± SD

| Molecule | Tmax |
| --- | --- |
| COc1ccc(C2CC(=O)c3c(O)cc(O)cc3O2)cc1OS(=O)(=O)O (stereo not shown) [M14, Hesperetin 3′-O-sulfate] | 8.4 ± 1.5 h |

Same assay, conditions: human, oral, 1.95 g, after orange (hesperidin) extract, mean ± SD

| Molecule | Cmax |
| --- | --- |
| COc1ccc(C2CC(=O)c3c(O)cc(O)cc3O2)cc1OS(=O)(=O)O (stereo not shown) [M14, Hesperetin 3′-O-sulfate] | 178 ± 286 nM |

Same assay, conditions: human, oral, 1.95 g, after orange (hesperidin) extract, mean ± SD, read-out: AUC0-t

| Molecule | AUC(0-t) |
| --- | --- |
| COc1ccc(C2CC(=O)c3c(O)cc(O)cc3O2)cc1OS(=O)(=O)O (stereo not shown) [M14, Hesperetin 3′-O-sulfate] | 0.635 ± 1.17 µM·h |

Same assay, conditions: human, oral, 1.95 g, after orange (hesperidin) extract, mean ± SD, read-out: Tmax

| Molecule | Tmax |
| --- | --- |
| COc1ccc(C2CC(=O)c3c(O)cc(O)cc3O2)cc1OS(=O)(=O)O (stereo not shown) [M14, Hesperetin 3′-O-sulfate] | 8.5 h |

Same assay, conditions: human, oral, 3.1 g, after lemon extract, mean ± SD

| Molecule | Cmax |
| --- | --- |
| COc1ccc(C2CC(=O)c3c(O)cc(O)cc3O2)cc1OS(=O)(=O)O (stereo not shown) [M14, Hesperetin 3′-O-sulfate] | 527 ± 358 nM |

Same assay, conditions: human, oral, 3.1 g, after lemon extract, mean ± SD, read-out: AUC0-t

| Molecule | AUC(0-t) |
| --- | --- |
| COc1ccc(C2CC(=O)c3c(O)cc(O)cc3O2)cc1OS(=O)(=O)O (stereo not shown) [M14, Hesperetin 3′-O-sulfate] | 2.04 ± 1.81 µM·h |

Same assay, conditions: human, oral, 3.1 g, after lemon extract, mean ± SD, read-out: Tmax

| Molecule | Tmax |
| --- | --- |
| COc1ccc(C2CC(=O)c3c(O)cc(O)cc3O2)cc1OS(=O)(=O)O (stereo not shown) [M14, Hesperetin 3′-O-sulfate] | 6.5 ± 1.9 h |
